Laboratory results as given in patent US9328099B2, “Cyanomethylpyrazole carboxamides as janus kinase inhibitors” (Merck Sharp & Dohme Corp., priority 2011, dated 2016).

What was measured:
JAK1 = JAK1 (Homo sapiens (Human), UniProt P23458); test: Jak Biochemical HTRF Assay, JAK1; conditions: HTRF biochemical assay, GST-tagged catalytic domain; top concentration tested […]; read-out: JAK1 IC50
Description: (§1) Jak Biochemical HTRF Assay Protocol
(§2) Subsequent reagent additions employed an Agilent Bravo.

JAK2 = JAK2 (Homo sapiens (Human), UniProt O60674); test: Jak Biochemical HTRF Assay, JAK2; conditions: HTRF biochemical assay, GST-tagged catalytic domain; top concentration tested […]
Description: as §1, §2

JAK2, sequence (O60674 849-1124): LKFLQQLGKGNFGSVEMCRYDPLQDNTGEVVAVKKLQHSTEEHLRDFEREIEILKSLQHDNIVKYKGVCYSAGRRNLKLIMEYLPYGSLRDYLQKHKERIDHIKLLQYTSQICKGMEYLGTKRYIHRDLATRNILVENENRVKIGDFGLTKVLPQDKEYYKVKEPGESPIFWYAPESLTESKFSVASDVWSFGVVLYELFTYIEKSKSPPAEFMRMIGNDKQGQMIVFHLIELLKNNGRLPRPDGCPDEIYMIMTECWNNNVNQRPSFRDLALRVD
JAK1, sequence (P23458 875-1153): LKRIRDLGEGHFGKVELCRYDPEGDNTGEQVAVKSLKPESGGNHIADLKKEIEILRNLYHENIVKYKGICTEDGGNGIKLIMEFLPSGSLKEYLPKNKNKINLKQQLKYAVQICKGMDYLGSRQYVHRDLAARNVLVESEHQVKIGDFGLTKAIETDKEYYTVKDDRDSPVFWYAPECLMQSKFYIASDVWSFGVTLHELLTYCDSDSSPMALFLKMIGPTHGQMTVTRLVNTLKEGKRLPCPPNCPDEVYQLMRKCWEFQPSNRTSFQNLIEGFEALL

Row | SMILES | IC50 (JAK1) [nM] | IC50 (JAK2) [nM]
1 | N#CCC1(n2cc(C(N)=O)c(Nc3ccc(F)cc3)n2)CCN(Cc2ccc3cc[nH]c3c2)CC1 [Example 22-56, 1-[4-(cyanomethyl)-1-(1H-indol-6-ylmethyl)piperidin-4-yl]-3-[(4-fluorophenyl)amino]-1H-pyrazole-4-carboxamide] | 2 | 46
2 | N#CCC1(n2cc(C(N)=O)c(Nc3ccc(F)cc3)n2)CCN(Cc2cccc3[nH]ccc23)CC1 [Example 22-57, 1-[4-(cyanomethyl)-1-(1H-indol-4-ylmethyl)piperidin-4-yl]-3-[(4-fluorophenyl)amino]-1H-pyrazole-4-carboxamide] | 14 | 280
3 | N#CCC1(n2cc(C(N)=O)c(Nc3ccc(F)cc3)n2)CCN(Cc2cccc3cc[nH]c23)CC1 [Example 22-58, 1-[4-(cyanomethyl)-1-(1H-indol-7-ylmethyl)piperidin-4-yl]-3-[(4-fluorophenyl)amino]-1H-pyrazole-4-carboxamide] | 4 | 128
4 | N#CCC1(n2cc(C(N)=O)c(Nc3ccnc(F)c3)n2)CCN(Cc2ccccc2Cl)CC1 [Example 22-59, 1-[1-(2-chlorobenzyl)-4-(cyanomethyl)piperidin-4-yl]-3-[(2-fluoropyridin-4-yl)amino]-1H-pyrazole-4-carboxamide] | 0.2 | 7
5 | N#CCC1(n2cc(C(N)=O)c(Nc3ccnc(F)c3)n2)CCN(Cc2ccc(O)cc2)CC1 [Example 22-60, 1-[4-(cyanomethyl)-1-(4-hydroxybenzyl)piperidin-4-yl]-3-[(2-fluoropyridin-4-yl)amino]-1H-pyrazole-4-carboxamide] | 0.1 | 6
6 | N#CCC1(n2cc(C(N)=O)c(Nc3ccnc(F)c3)n2)CCN(Cc2cccc(Cl)c2)CC1 [Example 22-61, 1-[1-(3-chlorobenzyl)-4-(cyanomethyl)piperidin-4-yl]-3-[(2-fluoropyridin-4-yl)amino]-1H-pyrazole-4-carboxamide] | 0.4 | 10
7 | N#CCC1(n2cc(C(N)=O)c(Nc3ccnc(F)c3)n2)CCN(Cc2cccc(C#N)c2)CC1 [Example 22-62, 1-[1-(3-cyanobenzyl)-4-(cyanomethyl)piperidin-4-yl]-3-[(2-fluoropyridin-4-yl)amino]-1H-pyrazole-4-carboxamide] | 0.9 | 33
8 | COc1cccc(CN2CCC(CC#N)(n3cc(C(N)=O)c(Nc4ccnc(F)c4)n3)CC2)c1 [Example 22-63, 1-[4-(cyanomethyl)-1-(3-methoxybenzyl)piperidin-4-yl]-3-[(2-fluoropyridin-4-yl)amino]-1H-pyrazole-4-carboxamide] | 0.5 | 20
9 | COc1ccc(CN2CCC(CC#N)(n3cc(C(N)=O)c(Nc4ccnc(F)c4)n3)CC2)cc1 [Example 22-65, 1-[4-(cyanomethyl)-1-(4-methoxybenzyl)piperidin-4-yl]-3-[(2-fluoropyridin-4-yl)amino]-1H-pyrazole-4-carboxamide] | 1 | 16
10 | N#CCC1(n2cc(C(N)=O)c(Nc3ccnc(F)c3)n2)CCN(Cc2cccc(=O)[nH]2)CC1 [Example 22-67, 1-{4-(cyanomethyl)-1-[(6-oxo-1,6-dihydropyridin-2-yl)methyl]piperidin-4-yl}-3-[(2-fluoropyridin-4-yl)amino]-1H-pyrazole-4-carboxamide] | 1 | 68
11 | N#CCC1(n2cc(C(N)=O)c(Nc3ccnc(F)c3)n2)CCN(Cc2ccc(C#N)cc2)CC1 [Example 22-69, 1-[1-(4-cyanobenzyl)-4-(cyanomethyl)piperidin-4-yl]-3-[(2-fluoropyridin-4-yl)amino]-1H-pyrazole-4-carboxamide] | 0.2 | 9
12 | N#CCC1(n2cc(C(N)=O)c(Nc3ccnc(F)c3)n2)CCN(Cc2cccc(O)c2)CC1 [Example 22-70, 1-[4-(cyanomethyl)-1-(3-hydroxybenzyl)piperidin-4-yl]-3-[(2-fluoropyridin-4-yl)amino]-1H-pyrazole-4-carboxamide] | 0.04 | 1
13 | N#CCC1(n2cc(C(N)=O)c(Nc3ccnc(F)c3)n2)CCN(Cc2ccc(Cl)cc2)CC1 [Example 22-71, 1-[1-(4-chlorobenzyl)-4-(cyanomethyl)piperidin-4-yl]-3-[(2-fluoropyridin-4-yl)amino]-1H-pyrazole-4-carboxamide] | 0.1 | 4
14 | N#CCC1(n2cc(C(N)=O)c(Nc3ccnc(F)c3)n2)CCN(Cc2ccccc2C#N)CC1 [Example 22-72, 1-[1-(2-cyanobenzyl)-4-(cyanomethyl)piperidin-4-yl]-3-[(2-fluoropyridin-4-yl)amino]-1H-pyrazole-4-carboxamide] | 0.3 | 13
15 | CC(c1ccccc1)N1CCC(CC#N)(n2cc(C(N)=O)c(Nc3ccc(F)cc3)n2)CC1 (stereo not drawn) [Example 23, 1-(4-(Cyanomethyl)-1-(1-phenylethyl)piperidin-4-yl)-3-((4-fluorophenyl)amino)-1H-pyrazole-4-carboxamide] | 4 | 105
16 | N#CCC1(n2cc(C(N)=O)c(Nc3ccc(F)cc3)n2)CCN(CCF)CC1 [Example 24-1, 1-(4-(Cyanomethyl)-1-(2-fluoroethyl)piperidin-4-yl)-3-((4-fluorophenyl)amino)-1H-pyrazole-4-carboxamide] | 10 | 59
17 | N#CCC1(n2cc(C(N)=O)c(Nc3ccc(F)cc3)n2)CCN(CC2CC2)CC1 [Example 24-2, 1-[4-(cyanomethyl)-1-(cyclopropylmethyl)piperidin-4-yl]-3-[(4-fluorophenyl)amino]-1H-pyrazole-4-carboxamide] | 41 | 917
18 | N#CCC1(n2cc(C(N)=O)c(Nc3ccc(F)cc3)n2)CCN(c2ccccn2)CC1 [Example 25, 1-(4-(Cyanomethyl)-1-(pyridin-2-yl)piperidin-4-yl)-3-(4-fluorophenylamino)-1H-pyrazole-4-carboxamide] | 0.08 | 2
19 | N#CCC1(n2cc(C(N)=O)c(Nc3ccc(F)cc3)n2)CCN(c2ccncn2)CC1 [Example 26, 1-[4-(Cyanomethyl)-1-pyrimidin-4-ylpiperidin-4-yl]-3-[(4-fluorophenyl)amino]-1H-pyrazole-4-carboxamide] | 0.4 | 5
20 | COC(=O)N1CCC(CC#N)(n2cc(C(N)=O)c(Nc3ccc(S(=O)(=O)C(F)(F)F)cc3)n2)CC1 [Example 27-1, Methyl 4-(4-carbamoyl-3-(4-(trifluoromethylsulfonyl)phenylamino)-1H-pyrazol-1-yl)-4-(cyanomethyl)piperidine-1-carboxylate] | 0.3 | 2
21 | COCCOC(=O)N1CCC(CC#N)(n2cc(C(N)=O)c(Nc3ccc(S(=O)(=O)C(F)(F)F)cc3)n2)CC1 [Example 27-2, 2-methoxyethyl 4-(4-carbamoyl-3-(4-(trifluoromethylsulfonyl)phenylamino)-1H-pyrazol-1-yl)-4-(cyanomethyl)piperidine-1-carboxylate] | 0.3 | 6
22 | COC(=O)N1CCC(CC#N)(n2cc(C(N)=O)c(Nc3ccc(S(C)(=O)=O)cc3)n2)CC1 [Example 27-3, methyl 4-(4-carbamoyl-3-{[4-(methylsulfonyl)phenyl]amino}-1H-pyrazol-1-yl)-4-(cyanomethyl)piperidine-1-carboxylate] | 1 | 16
23 | N#CCC1(n2cc(C(N)=O)c(Nc3ccccc3)n2)CCN(C(=O)OCc2ccccc2)CC1 [Example 27-4, benzyl 4-[4-carbamoyl-3-(phenylamino)-1H-pyrazol-1-yl]-4-(cyanomethyl)piperidine-1-carboxylate] | 3 | 85
24 | COC(=O)N1CCC(CC#N)(n2cc(C(N)=O)c(Nc3ccccc3)n2)CC1 [Example 27-5, methyl 4-[4-carbamoyl-3-(phenylamino)-1H-pyrazol-1-yl]-4-(cyanomethyl)piperidine-1-carboxylate] | 50 | 235
25 | COCC(C)(C)OC(=O)N1CCC(CC#N)(n2cc(C(N)=O)c(Nc3ccc(F)cc3)n2)CC1 [Example 28, 2-Methoxy-1,1-dimethylethyl 4-{4-carbamoyl-3-[(4-fluorophenyl)amino]-1H-pyrazol-1-yl}-4-(cyanomethyl)piperidine-1-carboxylate] | 4 | 74
26 | CC(C)(CO)OC(=O)N1CCC(CC#N)(n2cc(C(N)=O)c(Nc3ccc(F)cc3)n2)CC1 [Example 29, 1-Hydroxy-2-methylpropan-2-yl 4-{4-carbamoyl-3-[(4-fluorophenyl)amino]-1H-pyrazol-1-yl}-4-(cyanomethyl)piperidine-1-carboxylate] | 2 | 96
27 | N#CCC1(n2cc(C(N)=O)c(Nc3ccnc(F)c3)n2)CCN(C(=O)OCC(F)(F)F)CC1 [Example 30-1, 2,2,2-Trifluoroethyl 4-{4-carbamoyl-3-[(2-fluoropyridin-4-yl)amino]-1H-pyrazol-1-yl}-4-(cyanomethyl)piperidine-1-carboxylate] | 0.2 | 8
28 | N#CCC1(n2cc(C(N)=O)c(Nc3ccc(F)cc3)n2)CCN(C(=O)OCC(F)(F)F)CC1 [Example 30-2, 2,2,2-trifluoroethyl 4-(4-carbamoyl-3-(4-fluorophenylamino)-1H-pyrazol-1-yl)-4-(cyanomethyl)piperidine-1-carboxylate] | 0.3 | 15
29 | CC(OC(=O)N1CCC(CC#N)(n2cc(C(N)=O)c(Nc3ccc(F)cc3)n2)CC1)C(F)(F)F (stereo not drawn) [Example 30-3, 1,1,1-trifluoropropan-2-yl 4-(4-carbamoyl-3-(4-fluorophenylamino)-1H-pyrazol-1-yl)-4-(cyanomethyl)piperidine-1-carboxylate] | 0.8 | 28
30 | N#CCC1(n2cc(C(N)=O)c(Nc3ccc(F)cc3)n2)CCN(C(=O)OC2CCC2)CC1 [Example 30-4, cyclobutyl 4-(4-carbamoyl-3-(4-fluorophenylamino)-1H-pyrazol-1-yl)-4-(cyanomethyl)piperidine-1-carboxylate] | 0.9 | 33
